Assay results from paper PMC12603070, “A high-throughput screening approach to discover potential colorectal cancer chemotherapeutics: repurposing drugs to identify novel disruptors of 14-3-3 proteins” (Cell Death & Disease, 2025).
Where two headings read alike, the source gives them in different places.

Columns and labels:
[1] = target: T1, 14-3-3ζ:BAD-112-136F interactions (Homo sapiens, UniProt P63104); experiment: BRET sensor screen for disruption of 14-3-3ζ-Rluc8:BAD-112-136F-mCitrine in living NIH-3T3 cells; assay type: cell-based, murine; parameters: inhibition: dose or concentration left out as unconfirmed; settings: for inhibition at 20 µM / inhibition: NIH3T3, 3 h; for inhibition: NIH-3T3 cells
T1 construct: expressed in transfected cells; host or cells: NIH-3T3 fibroblasts, bi-directional pBI-CMV1 plasmid
T1 sequence (P63104 1-245): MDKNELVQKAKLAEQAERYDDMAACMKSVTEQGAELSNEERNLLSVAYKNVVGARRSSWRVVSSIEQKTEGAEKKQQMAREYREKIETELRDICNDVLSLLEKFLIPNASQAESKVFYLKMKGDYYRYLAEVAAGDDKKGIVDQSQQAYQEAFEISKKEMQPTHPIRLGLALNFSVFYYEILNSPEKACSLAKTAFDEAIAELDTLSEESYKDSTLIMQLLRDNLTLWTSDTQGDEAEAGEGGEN
How it was run: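 NIH-3T3 cells were transfected with the BRET sensor two days beforehand, then replated on poly-L-ornithine-coated plates and grown 24 h at 37 °C. Medium was then replaced with Krebs buffer (pH 7.4). Z′-score was calculated to judge HTS robustness.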

NIH-3T3 cells = experiment: Hoechst/propidium iodide cell death assay in NIH-3T3; assay type: cell-based; settings: for cytotoxicity at 20 µM: Mus musculus, NIH3T3, 24 h, 24 h, read-out: Percentage of cell death % 24h NIH3t3
Description: (§1) A high-content imaging system (PerkinElmer; Operetta CLS), was used to quantify cell death and apoptosis by calculating the number of propidium iodide-positive cells relative to Hoechst-positive cells, and the number of Annexin V-positive cells relative to Hoechst-positive cells, respectively.

HT-29 cells = experiment: Hoechst/propidium iodide cell death assay in HT-29; assay type: cell-based, human; settings: for %Cell death HT-29: time not given; for cytotoxicity at 20 µM: Homo sapiens
Description: as §1

His-14-3-3ζ = target: T2, His-14-3-3ζ (Homo sapiens, UniProt P63104); experiment: Surface plasmon resonance (SPR) on immobilized His-14-3-3ζ; assay type: binding; settings: for kd: SPR dissociation rate; for BI ([Signal (RU)]): SPR fit parameter, per curve; for kon: pH 7.8, SPR association rate, read-out: ka
T2 construct: made in house; host or cells: Escherichia coli BL21 LOBSTR-RIL
T2 sequence (P63104 1-245): T1 sequence (P63104 1-245)
Description: The published protocol of Higuchi & Ottmann as followed with modifications to express 14-3-3ζ [44]. Escherichia coli BL21 LOBSTR-RIL cells were transformed with a plasmid encoding His-14-3-3ζ. The transformed cells were grown in TB medium containing appropriate antibiotic at 37 °C with shaking at 200 rpm until the culture reached an optical density of 0.6–0.8 at 600 nm (OD600). Protein expression was induced by the addition of isopropyl β-D-1-thiogalactopyranoside to a final concentration of 0.4 mM. Subsequently, the temperature was decreased to 16 °C and the culture incubated for another 16 h. Cells were harvested by centrifugation at 7000 × g for 20 min at 21 °C. The supernatant was discarded, and the cell pellet containing 14-3-3ζ was mixed and resuspended in lysis buffer (50 mM Tris, pH 7.80), 500 mM NaCl, 5 mM imidazole, 5% glycerol, 1 mM PMSF & 1 mM Benzamidine. Cells were lysed by sonication on ice using a probe sonicator (20 cycles of 10 s on, 20 s off, amplitude 70%). The lysate was centrifuged at 30,000 × g for 30 min at 4 °C to remove cell debris. The supernatant was collected for further purification. The 14-3-3ζ was isolated from the lysate by affinity chromatography (Ni-NTA beads, Qiagen). For further purification, the eluant was subjected to size exclusion chromatography using a Superdex 75 gel filtration column (HiLoad 16/600, GE Healthcare), pre-equilibrated with SEC buffer (20 mM Tris, pH 7.5, 150 mM NaCl, 1 mM TCEP). The protein solution was concentrated by ultrafiltration, flash frozen, and stored at −80 °C.
The general protocol for evaluating 14-3-3ζ was adapted from Hartman et al. and modified for our instrument and sensors. The SPR experiments were performed using a Open surface plasmon resonance instrument (OpenSPR^TM, Nicoya, Kitchener-Waterloo, Canada), and high sensitivity-nitrilotriacetic acid (HS-NTA) sensors. The sensor chip surface was first activated with 40 mM of NiCl2 at a flow rate of 20 μL/min using 20 mM HEPES pH 7.8, 150 mM NaCl and 1% DMSO as the running buffer. All running buffers were filtered and degassed prior to use. 100 μg/mL His-14-3-3ζ protein in 20 mM HEPES pH 7.8, 150 mM NaCl and 1% DMSO was injected at 8 μL/min flow rate for 800 s contact time and immobilized until the instrument registered 2900–3500 RU (activation and protein immobalization spectrograms are provided as Supplementary Fig. 10). Drugs were dissolved in DMSO and were diluted with 20 mM HEPES pH 7.8, 150 mM NaCl (final DMSO concentration of 1% v/v) and were injected at a flow rate of 50 μL/min. Single-cycle kinetics were applied for KD evaluation and binding affinity using TraceDrawer v.1.8.1 (Ridgeview Instruments AB).

[2] = HT-29, 24 h, 20 µM, 24 h, read-out: Percentage of cell death % 24h HT-29
[3] = HT-29, 48 h, HT-29, 48h, 20 μM, read-out: Percentage of cell death % 48h, HT-29
[4] = SPR fit, value repeated per curve
[5] = SPR, immobilized His-14-3-3ζ, single-cycle kinetics, 1% DMSO
[6] = hits from the primary screen, read-out: BRET reduction on NIH-3T3
[7] = NIH-3T3 expressing BRET sensor, 20 µM, 3 h, read-out: BRET reduction on NIH-3T3

Bmax ([Signal (RU)]) (His-14-3-3ζ; SPR curve at 0.0009 mM ligand) [RU]	Bmax ([Signal (RU)]) (His-14-3-3ζ; SPR curve at 0.005 mM ligand) [RU]	Bmax ([Signal (RU)]) (His-14-3-3ζ; SPR curve at 0.02 mM ligand) [RU]	kd (His-14-3-3ζ; value repeated per curve) [s⁻¹]	BI ([Signal (RU)]) (His-14-3-3ζ) [RU]	Kd (His-14-3-3ζ; [4]) [µM]	Kd (His-14-3-3ζ; [5]) [µM]	kon (His-14-3-3ζ; value repeated per curve) [M⁻¹ s⁻¹]	inhibition [1, 6] [%]	inhibition at 20 µM [1, 7] [%]	Bmax ([Signal (RU)]) (His-14-3-3ζ; SPR curve at 0.01 mM ligand) [RU]	Bmax ([Signal (RU)]) (His-14-3-3ζ; SPR curve at 0.007 mM ligand) [RU]	SMILES	cytotoxicity at 20 µM (NIH-3T3 cells) [%]	Percentage of cell death % 48h, NIH3T3 (NIH-3T3 cells) [%]	%Cell death HT-29 (HT-29 cells; HT-29) [%]	cytotoxicity at 20 µM (HT-29 cells; [2]) [%]	cytotoxicity at 20 µM (HT-29 cells; [3]) [%]	other results
2.87	227.4	342.32	0.00856	0.1	10.6	10.6	807	–	–	–	–	CCCCCCCCc1ccc(CCC(N)(CO)CO)cc1 [Fingolimod (FTY720), Fingolimod]	89.8	86.4299	69.1	13.5	69.1	inhibition at 20 µM ([1]; read-out: BRET reduction on NIH-3T3, NIH-3T3 cells, hits from the primary screen): 34.9%; inhibition at 20 µM ([1]; read-out: BRET reduction on NIH-3T3, NIH-3T3 expressing BRET sensor, 20 µM, 3 h): 34.9%; Effect on BRET, dose-response ([1]; NIH-3T3 expressing BRET sensor, 3 h post-treatment): significantly reduced BRET in a dose-dependent manner
55.11	–	311.25	0.0109	0.1	0.858	0.89	12700	40.8	40.8	270.8	–	O=C(NC1CCN(CCCCC2(C(=O)NCC(F)(F)F)c3ccccc3-c3ccccc32)CC1)c1ccccc1-c1ccc(C(F)(F)F)cc1 [Lomitapide]	90.2	77.6841	72.9	29.5	72.9	Bmax ([Signal (RU)]) (His-14-3-3ζ; SPR curve at 0.003 mM ligand): 159.43 RU; Kd (His-14-3-3ζ; SPR, immobilized 14-3-3ζ): 0.9 µM
99.25	72.64	–	0.00974	0.1	1.35	1.35	7240	53.8	53.8	100.4	80.65	OC1(c2ccc(Cl)c(C(F)(F)F)c2)CCN(CCCC(c2ccc(F)cc2)c2ccc(F)cc2)CC1 [Penfluridol]	85.7	79.942	92.2	77.5	92.2	–
166.72	144.99	–	0.0185	0.1	2.96	2.96	6260	45.6	45.6	179.00	177.73	CC(C)(C)c1ccc(C(O)CCCN2CCC(C(O)(c3ccccc3)c3ccccc3)CC2)cc1 (centres unmarked) [Terfenadine]	85.2	73.0215	89.6	81.9	89.6	–
